Calls of active or inactive are those of the source. The rule behind the calls is not given here.
What was measured:
[1] = target: T1, Lysine-specific histone demethylase 1A (Homo sapiens, UniProt O60341); test: Time dependent irreversible inhibition of human LSD1 using H3K4me2 peptide as substrate at 0.1 to 6.4 uM incubated for 5 mins by fluorometric assay
[2] = target: T1, Lysine-specific histone demethylase 1A; test: Inhibition of LSD1 in human HeLa cells assessed as H3K4me2/H3 ratio at 20 uM after 24 hrs by Western blot analysis in absence of fetal bovine serum; assay type: cell-based
[3] = target: T1, Lysine-specific histone demethylase 1A; test: Irreversible inhibition of LSD1 (unknown origin) using H3K4me2 peptide substrate assessed as compound-FAD adduct formation after 22 hrs by MALDI-TOF mass spectrometric analysis
[4] = target: T2, Amine oxidase [flavin-containing] B (Homo sapiens, UniProt P27338); test: biochemical
T2 sequence (P27338 whole entry): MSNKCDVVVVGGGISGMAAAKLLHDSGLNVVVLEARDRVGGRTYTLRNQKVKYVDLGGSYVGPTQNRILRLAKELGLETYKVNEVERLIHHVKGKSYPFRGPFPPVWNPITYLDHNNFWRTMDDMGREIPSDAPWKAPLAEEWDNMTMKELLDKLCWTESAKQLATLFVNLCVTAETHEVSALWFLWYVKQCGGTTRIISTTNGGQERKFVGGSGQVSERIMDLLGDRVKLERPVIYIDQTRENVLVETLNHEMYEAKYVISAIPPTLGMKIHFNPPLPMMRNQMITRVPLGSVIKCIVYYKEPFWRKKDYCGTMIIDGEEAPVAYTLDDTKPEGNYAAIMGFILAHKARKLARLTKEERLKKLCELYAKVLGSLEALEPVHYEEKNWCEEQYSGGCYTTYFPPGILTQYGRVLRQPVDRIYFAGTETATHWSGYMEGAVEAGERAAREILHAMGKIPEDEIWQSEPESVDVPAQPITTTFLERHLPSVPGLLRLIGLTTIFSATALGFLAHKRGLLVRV
Description: Inhibition of human recombinant MAO-B expressed in baculovirus infected BTI insect cells using (4S)-4,5-dihydro-2-(6-hydroxybenzothiazolyl)-4-thiazolecarboxylic acid as substrate incubated for 60 mins by MAO-Glo assay

[5] = target: T1, Lysine-specific histone demethylase 1A; test: biochemical
Description: Inhibition of full length N-terminal His-tagged human recombinant LSD1 (1 to 852 residues) expressed in Escherichia coli BL21(DE3) cells using H3K4me2 peptide as substrate preincubated for 5 mins followed by substrate addition measured for 30 mins by peroxidase coupled assay

[6] = target: T3, Amine oxidase [flavin-containing] A (Homo sapiens, UniProt P21397); test: biochemical
T3 sequence (P21397 whole entry): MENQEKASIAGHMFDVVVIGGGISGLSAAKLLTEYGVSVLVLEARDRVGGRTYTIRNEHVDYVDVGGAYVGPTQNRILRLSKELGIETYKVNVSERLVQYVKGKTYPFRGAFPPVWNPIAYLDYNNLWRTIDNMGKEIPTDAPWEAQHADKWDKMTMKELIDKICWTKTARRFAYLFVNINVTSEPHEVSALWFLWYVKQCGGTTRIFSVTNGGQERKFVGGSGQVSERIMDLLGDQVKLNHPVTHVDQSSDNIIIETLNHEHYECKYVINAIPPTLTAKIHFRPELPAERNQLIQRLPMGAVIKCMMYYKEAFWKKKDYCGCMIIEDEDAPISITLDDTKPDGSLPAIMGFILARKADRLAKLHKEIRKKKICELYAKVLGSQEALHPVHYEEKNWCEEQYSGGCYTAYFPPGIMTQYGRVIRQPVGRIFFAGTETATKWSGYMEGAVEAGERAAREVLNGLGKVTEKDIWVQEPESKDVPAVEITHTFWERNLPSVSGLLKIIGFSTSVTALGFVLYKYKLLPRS
Description: Inhibition of human recombinant MAO-A expressed in baculovirus infected BTI insect cells using (4S)-4,5-dihydro-2-(6-hydroxybenzothiazolyl)-4-thiazolecarboxylic acid as substrate incubated for 60 mins by MAO-Glo assay

[7] = target: T1, Lysine-specific histone demethylase 1A; test: Drug metabolism assessed as LSD1 (unknown origin)-mediated compound-FAD adduct formation after 22 hrs by MALDI-TOF mass spectrometric analysis in presence of excess of H3K4me2 substrate peptide; assay type: ADME
[8] = target: T4, Lysine-specific histone demethylase 2 (Homo sapiens, UniProt Q8NB78); test: biochemical
T4 sequence (Q8NB78 whole entry): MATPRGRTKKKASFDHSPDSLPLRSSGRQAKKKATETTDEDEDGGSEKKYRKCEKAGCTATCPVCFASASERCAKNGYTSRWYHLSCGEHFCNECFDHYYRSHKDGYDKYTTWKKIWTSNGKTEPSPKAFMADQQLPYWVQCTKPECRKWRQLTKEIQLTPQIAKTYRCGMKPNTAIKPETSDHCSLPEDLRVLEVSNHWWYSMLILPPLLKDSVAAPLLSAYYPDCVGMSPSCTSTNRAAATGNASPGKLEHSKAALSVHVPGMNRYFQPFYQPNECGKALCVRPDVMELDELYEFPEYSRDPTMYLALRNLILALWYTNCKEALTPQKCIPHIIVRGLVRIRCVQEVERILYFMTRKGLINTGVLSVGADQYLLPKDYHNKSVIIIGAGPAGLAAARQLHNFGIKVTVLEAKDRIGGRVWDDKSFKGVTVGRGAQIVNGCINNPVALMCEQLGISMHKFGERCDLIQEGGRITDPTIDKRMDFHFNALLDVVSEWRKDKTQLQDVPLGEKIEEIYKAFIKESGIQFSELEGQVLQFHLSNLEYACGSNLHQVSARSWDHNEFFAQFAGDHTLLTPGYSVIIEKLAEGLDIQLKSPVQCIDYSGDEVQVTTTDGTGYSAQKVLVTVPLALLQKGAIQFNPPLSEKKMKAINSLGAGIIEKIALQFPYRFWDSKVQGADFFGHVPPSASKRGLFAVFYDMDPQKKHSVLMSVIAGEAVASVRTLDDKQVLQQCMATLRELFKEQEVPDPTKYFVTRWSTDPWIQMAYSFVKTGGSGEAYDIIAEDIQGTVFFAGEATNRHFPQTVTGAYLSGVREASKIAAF
Description: Inhibition of full length N-terminal His-tagged human LSD2 (1 to 822 residues) expressed in Escherichia coli BL21(DE3) cells using H3K4me2 peptide substrate by MALDI-TOF mass spectrometric analysis

[9] = target: T5, Lysine-specific demethylase 5A (Homo sapiens, UniProt P29375)
Description: Inhibition of JARID1A (unknown origin) using H3K4me3 peptide substrate preincubated for 5 mins followed by substrate addition by MALDI-TOF mass spectrometric analysis

[10] = target: T5, Lysine-specific demethylase 5A; test: Inhibition of JARID1A in human HeLa cells assessed as H3K4me3/H3 ratio at 20 uM after 24 hrs by Western blot analysis in absence of fetal bovine serum; assay type: cell-based
[11] = target: T1, Lysine-specific histone demethylase 1A; test: Inhibition of LSD1 in human HeLa cells assessed as H3K4me2/H3 ratio at 10 uM after 24 hrs by Western blot analysis in absence of fetal bovine serum; assay type: cell-based
[12] = target: T6, Lysine-specific histone demethylase 2 (Homo sapiens) (UniProt Q8NB78); test: Inhibition of LSD2 in human HeLa cells assessed as H3K4me1/H3 ratio at 10 uM after 24 hrs by Western blot analysis in absence of fetal bovine serum; assay type: cell-based
T6 sequence (whole entry): T4 sequence (Q8NB78 whole entry)

[13] = species: Homo sapiens
[14] = target: T1, Lysine-specific histone demethylase 1A; details: 22 h
[15] = target: T5, Lysine-specific demethylase 5A; test: Inhibition of JARID1A in human HeLa cells assessed as H3K4me3/H3 ratio at 5 uM after 24 hrs by Western blot analysis in absence of fetal bovine serum; assay type: cell-based
[16] = species: Homo sapiens; remark: listed apart in the source
[17] = target: T6, Lysine-specific histone demethylase 2 (Homo sapiens); test: Inhibition of LSD2 in human HeLa cells assessed as H3K4me1/H3 ratio at 20 uM after 24 hrs by Western blot analysis in absence of fetal bovine serum; assay type: cell-based
[18] = target: T1, Lysine-specific histone demethylase 1A; test: Inhibition of LSD1 in human HeLa cells assessed as increase in H3K4me2 level after 24 hrs by Western blot analysis in absence of fetal bovine serum; assay type: cell-based
[19] = target: T1, Lysine-specific histone demethylase 1A; test: Inhibition of LSD1 in human HeLa cells assessed as H3K4me2/H3 ratio at 5 uM after 24 hrs by Western blot analysis in absence of fetal bovine serum; assay type: cell-based
[20] = target: T5, Lysine-specific demethylase 5A; test: Inhibition of JARID1A in human HeLa cells assessed as H3K4me3/H3 ratio at 10 uM after 24 hrs by Western blot analysis in absence of fetal bovine serum; assay type: cell-based
[21] = target: T6, Lysine-specific histone demethylase 2 (Homo sapiens); test: Inhibition of LSD2 in human HeLa cells assessed as H3K4me1/H3 ratio at 5 uM after 24 hrs by Western blot analysis in absence of fetal bovine serum; assay type: cell-based
[22] = species: Homo sapiens; remark: listed apart in the source
[23] = test system: HeLa; test: Antiproliferative activity against human HeLa cells assessed as reduction in cell viability at 25 to 100 uM treated for 24 hrs measured after 48 hrs by alamar blue assay in absence of fetal bovine serum; assay type: functional, cell-based
[24] = species: Homo sapiens; remark: listed apart in the source
[25] = test system: HeLa; test: Antiproliferative activity against human HeLa cells assessed as inhibition of cell viability at 12.5 to 100 uM treated for 24 hrs measured after 48 hrs by alamar blue assay in absence of fetal bovine serum; assay type: functional, cell-based

T5 sequence (P29375 whole entry): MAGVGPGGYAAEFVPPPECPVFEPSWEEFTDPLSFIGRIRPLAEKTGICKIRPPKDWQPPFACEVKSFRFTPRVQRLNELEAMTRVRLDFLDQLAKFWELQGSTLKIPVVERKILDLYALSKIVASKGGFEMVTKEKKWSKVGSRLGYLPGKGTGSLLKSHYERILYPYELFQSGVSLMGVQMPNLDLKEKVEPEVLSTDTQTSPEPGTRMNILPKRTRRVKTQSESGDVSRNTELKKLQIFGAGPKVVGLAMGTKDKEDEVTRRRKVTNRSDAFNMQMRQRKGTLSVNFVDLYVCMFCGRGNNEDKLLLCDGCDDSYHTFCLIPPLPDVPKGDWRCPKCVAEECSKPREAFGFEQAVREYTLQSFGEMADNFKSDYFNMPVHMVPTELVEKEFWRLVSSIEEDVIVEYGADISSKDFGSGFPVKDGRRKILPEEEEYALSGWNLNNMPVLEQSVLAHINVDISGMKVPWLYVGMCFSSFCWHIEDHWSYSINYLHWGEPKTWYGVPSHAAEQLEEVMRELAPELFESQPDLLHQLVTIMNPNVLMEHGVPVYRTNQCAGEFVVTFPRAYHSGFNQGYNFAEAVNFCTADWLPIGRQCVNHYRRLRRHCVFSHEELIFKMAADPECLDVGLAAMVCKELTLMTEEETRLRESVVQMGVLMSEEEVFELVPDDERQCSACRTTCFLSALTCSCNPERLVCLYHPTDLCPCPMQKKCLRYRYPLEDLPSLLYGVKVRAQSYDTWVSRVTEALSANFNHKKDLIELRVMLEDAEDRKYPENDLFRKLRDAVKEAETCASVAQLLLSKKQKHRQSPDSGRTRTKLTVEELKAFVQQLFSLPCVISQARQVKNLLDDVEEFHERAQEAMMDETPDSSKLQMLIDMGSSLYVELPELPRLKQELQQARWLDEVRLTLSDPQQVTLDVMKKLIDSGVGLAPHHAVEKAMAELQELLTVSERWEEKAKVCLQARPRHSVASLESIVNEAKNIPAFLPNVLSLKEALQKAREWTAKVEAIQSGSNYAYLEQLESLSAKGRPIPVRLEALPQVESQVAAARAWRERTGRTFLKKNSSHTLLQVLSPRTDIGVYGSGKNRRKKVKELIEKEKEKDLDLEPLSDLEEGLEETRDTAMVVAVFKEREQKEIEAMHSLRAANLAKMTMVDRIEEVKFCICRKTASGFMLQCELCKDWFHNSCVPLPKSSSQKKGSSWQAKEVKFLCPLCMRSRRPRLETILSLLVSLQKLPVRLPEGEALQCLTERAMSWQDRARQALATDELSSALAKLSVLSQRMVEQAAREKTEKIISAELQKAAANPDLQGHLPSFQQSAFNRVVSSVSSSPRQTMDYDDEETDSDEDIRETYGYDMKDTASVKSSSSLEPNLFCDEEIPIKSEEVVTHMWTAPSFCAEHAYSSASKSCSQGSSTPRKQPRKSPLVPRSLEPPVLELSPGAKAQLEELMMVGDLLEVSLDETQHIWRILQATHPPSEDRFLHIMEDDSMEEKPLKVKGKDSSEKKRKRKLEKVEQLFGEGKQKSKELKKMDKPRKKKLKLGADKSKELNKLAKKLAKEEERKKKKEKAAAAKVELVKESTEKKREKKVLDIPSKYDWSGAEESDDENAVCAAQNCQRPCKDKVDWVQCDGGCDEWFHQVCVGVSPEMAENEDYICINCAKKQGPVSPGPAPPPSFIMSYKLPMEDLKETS

Row | SMILES | Ratio [2] | IC50 [4] | IC50 [5] | IC50 [6] | IC50 [8] | IC50 [9] | Ratio [10] | Ratio [11] | Ratio [12] | Ratio IC50 [13] | Drug metabolism [14] | Ratio [15] | Ratio IC50 [16] | Ratio [17] | inhibition [18] | Ratio [19] | Ratio [20] | Ratio [21] | Ratio IC50 [22] | Ratio IC50 [24] | other results
1 | CC(C)C[C@@H](NC(=O)[C@@H](CCCNN)NC(=O)[C@@H](CO)NC(=O)[C@H](CCCNC(=N)N)NC(=O)[C@@H]1CCCN1)C(=O)N[C@@H](C(=O)N[C@H](CCCNC(=N)N)C(=O)N[C@H](CCCCN)C(=O)N1CCC[C@@H]1C(=O)N[C@H](CO)C(=O)N[C@H](CC(=O)O)C(=O)N1CCC[C@@H]1C(=O)N[C@H](CC(N)=O)C(=O)N[C@H](CCCNC(=N)N)C(=O)N[C@H](CCCCN)C(=O)N1CCC[C@@H]1C(=O)N[C@@H](CC(N)=O)C(=O)N[C@H](Cc1ccc(O)cc1)C(=O)N[C@H](CO)C(=O)N[C@H](CCC(N)=O)C(N)=O)C(C)C | 1.34 |  |  |  |  |  |  |  |  |  |  |  |  |  |  |  |  |  |  |  | TDI [1]: Active; inhibition [3]: Active
2 | CC(C)C[C@H](NC(=O)[C@H](CCCNN)NC(=O)[C@H](CO)NC(=O)[C@H](CCCNC(=N)N)NC(=O)[C@@H]1CCCN1)C(=O)N[C@H](C(=O)N[C@@H](CCCNC(=N)N)C(=O)N[C@@H](CCCCN)C(=O)N1CCC[C@H]1C(=O)N[C@@H](CO)C(=O)N[C@@H](CC(=O)O)C(=O)N1CCC[C@H]1C(=O)N[C@@H](CC(N)=O)C(=O)N[C@@H](CCCNC(=N)N)C(=O)N[C@@H](CCCCN)C(=O)N1CCC[C@H]1C(=O)N[C@@H](CC(N)=O)C(=O)N[C@@H](Cc1ccc(O)cc1)C(=O)N[C@@H](CO)C(=O)N[C@@H](CCC(N)=O)C(N)=O)C(C)C |  | > 30 µM | 0.44 µM | > 30 µM | > 50 µM | > 50 µM |  |  |  |  |  |  |  |  |  |  |  |  |  |  | Drug metabolism [7]: metabolite_notdetected
3 | CC(C)C[C@H](NC(=O)[C@H](CCCNN)NC(=O)[C@H](CO)NC(=O)[C@@H](CCCNC(=N)N)NC(=O)[C@H]1CCCN1)C(=O)N[C@H](C(=O)N[C@@H](CCCNC(=N)N)C(=O)N[C@@H](CCCCNC(=O)[C@@H](CCCNC(=N)N)NC(=O)[C@@H](CCCNC(=N)N)NC(=O)[C@@H](CCCNC(=N)N)NC(=O)[C@@H](CCCNC(=N)N)NC(=O)[C@@H](CCCNC(=N)N)NC(=O)[C@@H](CCCNC(=N)N)NC(=O)[C@@H](CCCNC(=N)N)NC(=O)[C@@H](N)CCCNC(=N)N)C(=O)N1CCC[C@H]1C(=O)N[C@@H](CO)C(=O)N[C@@H](CC(=O)O)C(=O)N1CCC[C@H]1C(=O)N[C@@H](CC(N)=O)C(=O)N[C@@H](CCCNC(=N)N)C(=O)N[C@@H](CCCCN)C(=O)N1CCC[C@H]1C(=O)N[C@H](CC(N)=O)C(=O)N[C@@H](Cc1ccc(O)cc1)C(=O)N[C@@H](CO)C(=O)N[C@@H](CCC(N)=O)C(N)=O)C(C)C | 2.19 | 29 µM | 0.28 µM | > 30 µM | 13.2 µM | 6.74 µM | 0.98 | 1.9 | 0.98 | 16 | metabolite_detected | 1.04 | 94 | 1.08 | Dose-dependent effect | 1.72 | 0.95 | 1.01 | 23 | > 94 | Activity [23]: Active
4 | CC(C)C[C@@H](NC(=O)[C@@H](CCCNN)NC(=O)[C@@H](CO)NC(=O)[C@@H](CCCNC(=N)N)NC(=O)[C@H]1CCCN1)C(=O)N[C@@H](C(=O)N[C@H](CCCNC(=N)N)C(=O)N[C@@H](CCCCNC(=O)COCCOCCNC(=O)[C@@H](CCCNC(=N)N)NC(=O)[C@@H](CCCNC(=N)N)NC(=O)[C@@H](CCCNC(=N)N)NC(=O)[C@@H](CCCNC(=N)N)NC(=O)[C@@H](CCCNC(=N)N)NC(=O)[C@@H](CCCNC(=N)N)NC(=O)[C@@H](CCCNC(=N)N)NC(=O)[C@@H](N)CCCNC(=N)N)C(=O)N1CCC[C@H]1C(=O)N[C@@H](CO)C(=O)N[C@@H](CC(=O)O)C(=O)N1CCC[C@H]1C(=O)N[C@@H](CC(N)=O)C(=O)N[C@@H](CCCNC(=N)N)C(=O)N[C@@H](CCCCN)C(=O)N1CCC[C@H]1C(=O)N[C@H](CC(N)=O)C(=O)N[C@@H](Cc1ccc(O)cc1)C(=O)N[C@@H](CO)C(=O)N[C@@H](CCC(N)=O)C(N)=O)C(C)C | 2.08 | 30 µM | 0.29 µM | > 30 µM | 23.2 µM | 12.9 µM | 1.01 | 1.73 | 0.99 | 16 | metabolite_detected | 1.03 | 94 | 1.05 | Dose-dependent effect | 1.29 | 0.98 | 0.96 | 23 | > 94 | inhibition [25]: Active
